Results: US20070212426A1, “Composition and method of retarding viral activity and reducing viral replication” (priority 2006, published 2007)
Where two headings read alike, the source gives them in different places.

Assays:
[1] = tested on: human influenza A virus (VR-1520); format: cell-based; conditions: for output of Antigen to the control's output: Vero cells, control 245 Antigen units/ml
[2] = tested on: Influenza Virus A's Neuraminidase; test: Neuraminidase activity of cell-free virus, 4-methylumbelliferyl N-acetylneuramic acid substrate
From the text: The method of these experiments are well known in the art, however, in brief, cell free virus are mixed with an equal volume of the composition in Table 1 or Ascorbic Acid in another, at various concentrations, and any inhibitory activity is observed at various time points after the mixture. Spectrophotometer assay for Neuraminidase has been established in the laboratory at using 4-methylumbelliferyl N-acetylneuramic acid as a substrate in the cell free system.

## O=C1O[C@H]([C@@H](O)CO)C(O)=C1O [ascorbic acid]
[1]; 50 micromoles
  output of Antigen to the control's output: 35%
[1]; 100 micromoles
  output of Antigen to the control's output: 45%
[1]; 250 micromoles
  output of Antigen to the control's output: 41%
[1]; various concentrations, serum-free medium
  Influenza A virus antigen production in Vero cells (figure legend): marginal decrease
[2]; 1000 microgram/ml
  Neuraminidase activity to the control's: 90%
[2]; 2000 microgram/ml
  Neuraminidase activity to the control's: 85%
[2]; 3000 microgram/ml
  Neuraminidase activity to the control's: 80%
